According to article PMC6690791 (Bioorganic & medicinal chemistry letters, 2019):
Where two headings read alike, the source gives them in different places.

Tests used:
Format in all cases: biochemical
[1] = target: HCV genotype 1b NS3/4A protease (Hepatitis C virus genotype 1b, UniProt P26663); assay: fluorescence-based enzymatic assay, genotype 1b NS3/4A
R155K NS3/4A genotype 1b = R155K NS3/4A genotype 1b (Hepatitis C virus genotype 1b, UniProt P26663, R1181K); assay: enzymatic inhibition assay, drug-resistant mutant R155K of genotype 1b
V36M NS3/4A genotype 1b = V36M NS3/4A genotype 1b (Hepatitis C virus genotype 1b, UniProt P26663, V1062M); assay: enzymatic inhibition assay, drug-resistant mutant V36M of genotype 1b
[2] = target: HCV genotype 3a NS3/4A protease (Hepatitis C virus genotype 3a, UniProt Q81258); assay: enzymatic inhibition assay, genotype 3a NS3/4A
A156S NS3/4A genotype 1b = A156S NS3/4A genotype 1b (Hepatitis C virus genotype 1b, UniProt P26663, A1182S); assay: enzymatic inhibition assay, drug-resistant mutant A156S of genotype 1b

IC50 [1] | SMILES | inhibitory activity (IC50) (R155K NS3/4A genotype 1b) | also measured
2 to 5 µM | Cc1ccc(S(=O)(=O)Nc2ccccc2C(=O)Nc2nc3c(C)cc(C)cc3s2)cc1 [F0325–0086] | – | –
2 to 5 µM | Cc1ccc(S(=O)(=O)Nc2ccccc2C(=O)Nc2nc3ccc4ccccc4c3s2)cc1 [F0325–0092] | – | –
5 to 10 µM | Cc1ccc(S(=O)(=O)Nc2ccccc2C(=O)Nc2nc3c(ccc4ccccc43)s2)cc1 [F0325–0093] | – | –
2 to 5 µM | Cc1ccc(S(=O)(=O)Nc2ccccc2C(=O)Nc2nc3ccc4sc(C)nc4c3s2)cc1 [F0725–0019] | – | –
10 to 100 µM | Cc1ccc(S(=O)(=O)Nc2ccccc2C(=O)Nc2nc3c(Br)cccc3s2)cc1 [F1822–0567] | – | –
5 to 10 µM | Cc1c(Cl)cccc1NC(=O)Cc1csc(NS(=O)(=O)c2ccccc2)n1 [F2322–0877] | – | –
– | Cc1cc(NC(=O)Cc2csc(NS(=O)(=O)c3ccccc3)n2)ccc1Br [F2322–0885] | – | IC50 ([2]; genotype 3a NS3/4A): did not have any effect
5 to 10 µM | CSc1cccc(NC(=O)Cc2csc(NS(=O)(=O)c3ccccc3)n2)c1 [F2322–0904] | – | –
10 to 100 µM | CSc1cccc2sc(NC(=O)c3ccccc3NS(=O)(=O)c3ccc(C)cc3)nc12 [F2730–0247] | – | –

SMILES | IC50 [1] | inhibitory activity (IC50) (R155K NS3/4A genotype 1b) | also measured
Cc1ccc(S(=O)(=O)Nc2ccccc2C(=O)Nc2nc(-c3cc(Cl)ccc3Cl)cs2)cc1 [F0325–0125] | < 2 µM | did not retain activity | –
Cc1ccc(S(=O)(=O)Nc2ccccc2C(=O)Nc2nc3c(cc4c5c(cccc53)CC4)s2)cc1 [F0816–0111] | 2 to 5 µM | did not retain activity | –
Cc1ccc(S(=O)(=O)Nc2ccccc2C(=O)Nc2nc3c(Cl)ccc(Cl)c3s2)cc1 [F1813–0710] | < 2 µM | maintains its activities | inhibitory activity (IC50) (V36M NS3/4A genotype 1b): maintains its activities; IC50 [2]: 14 µM; inhibitory activity (IC50) (A156S NS3/4A genotype 1b): maintains its activities
Cc1ccc(S(=O)(=O)Nc2ccccc2C(=O)Nc2nc3c(C)ccc(Cl)c3s2)cc1 [F1813–0711] | 5 to 10 µM | did not retain activity | –
